In patent US9259404B2 (NESTEC S.A., priority 2012, dated 2016):
Entries after “also recorded” stand apart in the source; their conditions may differ.

Key:
[1] = background statement; cited from earlier work
AREc32 cells = experiment: Cell viability of AREc32 cells (ATP quantification, Cell Titer-Glo); assay type: cell-based; conditions: 24 h
Experimental: The cell viability, measured by ATP quantification, is expressed as relative percentages of control (untreated) cells. The results are expressed as means of technical triplicates±SD and are representative of four independent experiments.
To determine the Nrf2 activation the samples were tested on AREC32 cells (seeded in 96 well plates) using 10 independent dilutions (1/2, 1/4, 1/6, 1/10, 1/15, 1/20, 1/25, 1/30, 1/40 and 1/50) and incubated for 24 hours at 37° C. in a 5% CO2/air incubator. The luciferase activity and the cell viability (ATP measurements) were determined using the Luciferase and Cell Titer-Glo kits from Promega.
The cell viability was also measured using a cell Titer-Glo kit (ATP quantification).

Nrf2 = Nrf2 reporter assay (AREc32 cell line, luciferase under control of the ARE); assay type: cell-based; conditions: AREc32 cells, 24 h, dose range 0 to 200 μM (FIG. 3)
Experimental: Activation of Nrf2 was measured using an Nrf2 reporter assay. This assay is based on the AREc32 cell line, from CRX biosciences (Dundee, Scotland), a stably transfected MCF7 (breast adenocarcinoma) cell line that contains a luciferase gene construct under the control of the ARE. Luciferase is an enzyme which digests luciferin and produces […]. Anti-oxidative molecules such as Tert-butylhydroquinone (TBHQ) induce luciferase transcription via the activation of Nrf2 that binds to ARE. Luciferase activity is determined using a luciferase kit form Promega (Madison, Wis.). The luciferase activity is proportional to the activation of Nrf2. […] The luciferase activity and the cell viability (ATP measurements) were determined using the Luciferase and Cell Titer-Glo kits from Promega. For each run the luciferase activities, measured in Relative Light Units (RLU), of all the wells were normalized with the mean of the luciferase activity of the cells only of all the plates. Among all the samples tested the normalization procedure was found not to affect the data and this observation permits the comparison of samples measured in different runs. For each sample the Nrf2 activation was calculated as follows: […] […] The luciferase content per sample allows a semi quantification of the Nrf2 activation by reflecting the amount of the Nrf2 activating molecule. […]

[2] = tested on: neuron astrocyte co-cultures; experiment: Neuron-astrocyte co-culture, oxidative stress induced by hydrogen peroxide, MTT assay; assay type: cell-based, mouse; conditions: 48 hours pre-treatment, 100 μM hydrogen peroxide 4 hours
Description: The beneficial effect of compounds on cell survival is classically investigated by challenging the cell cultures with neurotoxic insults and measuring the resulting oxidative stress and excitotoxicity over a limited period of time (Aksenova et al., Current Neurovascular Research, 2, 73-89 (2005)). […] The model consists of primary neurons plated on glass coverslips that face astrocytes seeded on the bottom of a culture dish. The two cellular compartments are separated by paraffin beads, but released compounds (e.g., energy substrates and glutathione precursors) can freely diffuse from one compartment to the other through the culture medium. Primary cultures of mouse neurons are grown for 12 days in Neurobasal™ medium on 20 mm diameter glass coverslips. Primary cultures of mouse astrocytes are grown for 21 days in astrocytes culture medium in 35 mm diameter dishes. Two hours before initiation of the co-culture, the astrocyte medium is removed and replaced by a fresh neuronal medium. The co-culture is initiated by putting the glass coverslips bearing neurons in the dishes containing astrocyte culture so that neurons face astrocytes. […] For detection this purple product is solubilised for colorimetric quantification at 560 nm using a spectrophotometer.

Compound | Aqueous solubility (in words) [1] | Doses at which viability of AREc32 cells was not affected (AREc32 cells) | Nrf2 activation (in words) (Nrf2) | Concentration giving the strongest protective effect [2] [µM] | Protection of neurons against oxidative stress (in words) ([2]; all tested concentrations (5 μM to 30 μM) except 10 μM)
O=c1c(O)c(-c2ccc(O)c(O)c2)oc2cc(O)cc(O)c12 [quercitin] | very low aqueous solubility |  |  |  | 
CC(=O)/C=C/C(=O)O [4-oxo-2-pentenoic acid] |  | lower than 70 μM | activates Nrf2; also recorded: strongly activate Nrf2 in a dose dependent manner | 5 | protects neuronal cells against oxidative stress; also recorded: clear and significant protection
COc1cc(/C=C/C(=O)CC(=O)/C=C/c2ccc(O)c(OC)c2)ccc1O [curcumin] | very low aqueous solubility |  |  |  | 
Oc1ccc(C=Cc2cc(O)cc(O)c2)cc1 [resveratrol] | very low aqueous solubility |  |  |  | 
